Legend:
[1] = biological target: T1, Recombinant STAT3 protein (STAT3 (G127-I722)) (Homo sapiens, UniProt P40763); assay: STAT3 Fluorescence Polarization (FP) Assay; type: binding; conditions: STAT3 (G127-I722) 25 nM, probe 5-FAM-GpYLPQTV-NH2 2 nM, 45-minute incubation; read-out: STAT3 (FP assay IC50 class)
T1 construct: Recombinant STAT3 protein (STAT3 (G127-I722))
How it was run: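 Displacement of a 2 nM 5-FAM-labelled pY peptide (GpYLPQTV) from 25 nM recombinant STAT3 (G127-I722) was monitored by fluorescence polarization. Incubation lasted 45 min at room temperature in pH 7.4 HEPES buffer containing 1% DMSO.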

[2] = biological target: T2, Recombinant STAT6 protein (STAT6 (W123-T658)) (Homo sapiens, UniProt P42226); assay: STAT6 Fluorescence Polarization (FP) Assay; type: binding; conditions: STAT6 (W123-T658) 250 nM, probe 5-FAM-Ap[…]-NH2 2 nM, 45-minute incubation; read-out: STAT6 (FP assay IC50 class)
T2 construct: Recombinant STAT6 protein (STAT6 (W123-T658))
T2 sequence (P42226 123-658): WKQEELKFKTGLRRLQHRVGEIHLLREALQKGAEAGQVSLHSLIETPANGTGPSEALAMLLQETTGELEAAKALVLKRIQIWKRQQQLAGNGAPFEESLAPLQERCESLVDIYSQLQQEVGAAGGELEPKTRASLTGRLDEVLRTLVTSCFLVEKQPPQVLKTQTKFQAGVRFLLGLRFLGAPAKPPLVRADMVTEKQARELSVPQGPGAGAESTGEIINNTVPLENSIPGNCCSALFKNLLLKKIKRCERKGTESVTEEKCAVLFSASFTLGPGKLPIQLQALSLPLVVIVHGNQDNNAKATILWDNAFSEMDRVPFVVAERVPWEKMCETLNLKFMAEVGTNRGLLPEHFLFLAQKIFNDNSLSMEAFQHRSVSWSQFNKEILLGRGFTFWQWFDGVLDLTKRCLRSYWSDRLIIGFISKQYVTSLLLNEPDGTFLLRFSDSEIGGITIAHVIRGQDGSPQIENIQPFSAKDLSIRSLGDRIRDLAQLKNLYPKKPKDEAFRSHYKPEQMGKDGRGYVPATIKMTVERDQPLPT
How it was run: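 Probe displacement format: serially diluted compounds incubated 45 min at room temperature with 2 nM fluorescent phosphopeptide and 250 nM STAT6 (W123-T658) in pH 7.4 HEPES buffer, 1% DMSO final. Polarization signal plotted against log concentration, IC50 fitted by nonlinear regression.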

T1 sequence (P40763 127-722): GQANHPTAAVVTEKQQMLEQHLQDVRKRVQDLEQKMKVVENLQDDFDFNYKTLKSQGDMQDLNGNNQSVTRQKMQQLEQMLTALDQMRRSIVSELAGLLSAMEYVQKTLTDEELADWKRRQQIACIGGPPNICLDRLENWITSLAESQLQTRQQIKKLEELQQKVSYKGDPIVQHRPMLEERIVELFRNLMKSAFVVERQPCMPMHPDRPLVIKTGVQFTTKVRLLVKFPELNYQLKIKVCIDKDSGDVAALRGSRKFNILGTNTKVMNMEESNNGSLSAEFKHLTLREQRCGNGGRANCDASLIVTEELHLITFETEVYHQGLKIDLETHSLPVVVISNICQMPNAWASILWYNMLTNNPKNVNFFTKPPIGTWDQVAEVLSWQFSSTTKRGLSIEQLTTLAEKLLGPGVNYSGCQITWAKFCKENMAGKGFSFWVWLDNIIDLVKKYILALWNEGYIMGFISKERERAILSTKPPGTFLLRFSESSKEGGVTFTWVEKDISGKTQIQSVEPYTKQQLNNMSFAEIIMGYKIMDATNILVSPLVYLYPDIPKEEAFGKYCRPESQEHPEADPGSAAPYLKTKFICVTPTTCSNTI

Q: What does the source list for `Cn1ncc(C2CCN(C(=O)[C@@H]3CC[C@@H]4CCCC[C@H](NC(=O)c5cc6cc(C(F)P(=O)(O)O)ccc6s5)C(=O)N43)C2)cc1=O` (stereo partly drawn) [Compound 913, (fluoro(2-(((3S,6S,10aS)-3-(3-(1-methyl-6-oxo-1,6-dihydropyridazin-4-yl)pyrrolidine-1-carbonyl)-5-oxodecahydropyrrolo [1,2-a]azocin-6-yl)carbamoyl)benzo [b]thiophen-5-yl)methyl) phosphonic acid]?
A: IC50 [1]: 1 to 10 µM; IC50 [2]: 0.3 to 3 µM

Q: Which results are given for `Cn1ccc(C2(O)CCN(C(=O)[C@@H]3CC[C@@H]4CCCC[C@H](NC(=O)c5cc6cc(C(F)P(=O)(O)O)ccc6s5)C(=O)N43)C2)cc1=O` (stereo partly drawn) [Compound 914, (fluoro(2-(((3S,6S,10aS)-3-(3-hydroxy-3-(1-methyl-2-oxo-1,2-dihydropyridin-4-yl)pyrrolidine-1-carbonyl)-5-oxodecahydropyrrolo [1,2-a]azocin-6-yl)carbamoyl)benzo [b]thiophen-5-yl)methyl) phosphonic acid]?
A: IC50 [1]: 0.1 to 1 µM; IC50 [2]: 0.3 to 3 µM

Q: For `O=C(N[C@H]1CCC[C@H]2CC[C@@H](C(=O)N3C(=O)N(c4cccnc4)C(=O)C34CC4)N2C1=O)c1cc2cc([C@H](F)P(=O)(O)O)ccc2s1` [Compound 915, ((R)-(2-(((3S,6S,9aS)-3-(5,7-dioxo-6-(pyridin-3-yl)-4,6-diazaspiro[2.4]heptane-4-carbonyl)-5-oxooctahydro-1H-pyrrolo[1,2-a]azepin-6-yl)carbamoyl)benzo [b]thiophen-5-yl)fluoromethyl) phosphonic acid], which IC50 [1] is on record?
A: Its IC50 is 1 to 10 µM.

Q: And the IC50 [2]?
A: The IC50 was no more than 0.3 µM.

Q: Which results are given for `N#Cc1cc(C2CN(C(=O)[C@@H]3CC[C@@H]4CCC[C@H](NC(=O)c5cc6cc(C(F)P(=O)(O)O)ccc6s5)C(=O)N43)C2)ccn1` (stereo partly drawn) [Compound 918, ((2-(((3S,6S,9aS)-3-(3-(2-cyanopyridin-4-yl)azetidine-1-carbonyl)-5-oxooctahydro-1H-pyrrolo[1,2-a]azepin-6-yl)carbamoyl)benzo [b]thiophen-5-yl)fluoromethyl) phosphonic acid]?
A: IC50 [1]: < 0.1 µM; IC50 [2]: 3 to 30 µM

Q: `N#C[C@H]1[C@H](c2ccccc2)CN(C(=O)[C@@H]2CC[C@@H]3CCC[C@H](NC(=O)c4cc5cc(CP(=O)(O)O)ccc5s4)C(=O)N32)C12CC2` [Compound 922, ((2-(((3S,6S,9aS)-3-((6R,7S)-7-cyano-6-phenyl-4-azaspiro[2.4]heptane-4-carbonyl)-5-oxooctahydro-1H-pyrrolo[1,2-a]azepin-6-yl)carbamoyl)benzo [b]thiophen-5-yl)methyl) phosphonic acid] was tested. Which IC50 [1] did it give?
A: Its IC50 is 1 to 10 µM.

Q: What about the IC50 [2] of the same compound?
A: Its IC50 is 0.3 to 3 µM.

Q: `COc1c(C2CN(C(=O)[C@@H]3CC[C@@H]4CCC[C@H](NC(=O)c5cc6cc(C(F)P(=O)(O)O)ccc6s5)C(=O)N43)C2)ccnc1F` (stereo partly drawn) [Compound 925, (fluoro(2-(((3S,6S,9aS)-3-(3-(2-fluoro-3-methoxypyridin-4-yl)azetidine-1-carbonyl)-5-oxooctahydro-1H-pyrrolo[1,2-a]azepin-6-yl)carbamoyl)benzo [b]thiophen-5-yl)methyl) phosphonic acid] was tested. Which IC50 [1] did it give?
A: Its IC50 is less than 0.1 µM.

Q: And the IC50 [2]?
A: The IC50 was 3 to 30 µM.

Q: What does the source list for `COC[C@@H]1CCN1c1ccncc1C1CN(C(=O)[C@@H]2CC[C@@H]3CCC[C@H](NC(=O)c4cc5cc([C@@H](F)P(=O)(O)O)ccc5s4)C(=O)N32)C1` [Compound 926, ((S)-fluoro(2-(((3S,6S,9aS)-3-(3-(4-((S)-2-(methoxymethyl)azetidin-1-yl)pyridin-3-yl)azetidine-1-carbonyl)-5-oxooctahydro-1H-pyrrolo[1,2-a]azepin-6-yl)carbamoyl)benzo [b]thiophen-5-yl)methyl) phosphonic acid]?
A: IC50 [1]: < 0.1 µM; IC50 [2]: 3 to 30 µM

Q: With `O=C(N[C@H]1CCC[C@H]2CC[C@@H](C(=O)N3CC(c4ccnc(O)n4)C3)N2C1=O)c1cc2cc(C(F)P(=O)(O)O)ccc2s1` (stereo partly drawn) [Compound 927, (fluoro(2-(((3S,6S,9aS)-3-(3-(2-hydroxypyrimidin-4-yl)azetidine-1-carbonyl)-5-oxooctahydro-1H-pyrrolo[1,2-a]azepin-6-yl)carbamoyl)benzo [b]thiophen-5-yl)methyl) phosphonic acid] as the compound, how does the IC50 [1] read?
A: Its IC50 is less than 0.1 µM.

Q: And the IC50 [2]?
A: The IC50 was 3 to 30 µM.

Q: What does the source list for `CCOc1c(F)cncc1C1CN(C(=O)[C@@H]2CC[C@@H]3CCC[C@H](NC(=O)c4cc5cc([C@@H](F)P(=O)(O)O)ccc5s4)C(=O)N32)C1` [Compound 928, ((S)-(2-(((3S,6S,9aS)-3-(3-(4-ethoxy-5-fluoropyridin-3-yl)azetidine-1-carbonyl)-5-oxooctahydro-1H-pyrrolo[1,2-a]azepin-6-yl)carbamoyl)benzo [b]thiophen-5-yl)fluoromethyl) phosphonic acid]?
A: IC50 [1]: 1 to 10 µM; IC50 [2]: 3 to 30 µM

Q: How did the IC50 [1] turn out when `N#C[C@H]1[C@H](c2ccccc2)CN(C(=O)[C@@H]2CC[C@@H]3CCCC[C@H](NC(=O)c4cc5cc(CP(=O)(O)O)ccc5s4)C(=O)N32)C12CC2` [Compound 929, ((2-(((3S,6S,10aS)-3-((6R,7S)-7-cyano-6-phenyl-4-azaspiro[2.4]heptane-4-carbonyl)-5-oxodecahydropyrrolo [1,2-a]azocin-6-yl)carbamoyl)benzo [b]thiophen-5-yl)methyl) phosphonic acid] was run?
A: Its IC50 is 1 to 10 µM.

Q: What about the IC50 [2] of the same compound?
A: The IC50 was no more than 0.3 µM.

Q: Which IC50 [1] does the source give for `CCC[C@@H]1CC[C@H](NC(=O)c2cc3cc([C@H](F)P(=O)(O)O)ccc3s2)C(=O)N2[C@H](CC[C@H]2C(=O)N2CC(c3cnccc3N3CCC3)C2)C1` [Compound 930, ((R)-(2-(((3S,6S,9R,10aR)-3-(3-(4-(azetidin-1-yl)pyridin-3-yl)azetidine-1-carbonyl)-5-oxo-9-propyldecahydro-pyrrolo[1,2-a]azocin-6-yl)carbamoyl)benzo [b]thiophen-5-yl)fluoromethyl) phosphonic acid] here?
A: The IC50 was 0.1 to 1 µM.

Q: And the IC50 [2]?
A: The IC50 was 3 to 30 µM.

Q: With `CC[C@@H]1CC[C@H](NC(=O)c2cc3cc([C@H](F)P(=O)(O)O)ccc3s2)C(=O)N2[C@H](CC[C@H]2C(=O)N2CC(c3cnccc3N3CCC3)C2)C1` [Compound 931, ((R)-(2-(((3S,6S,9R,10aR)-3-(3-(4-(azetidin-1-yl)pyridin-3-yl)azetidine-1-carbonyl)-9-ethyl-5-oxodecahydropyrrolo [1,2-a]azocin-6-yl)carbamoyl)benzo [b]thiophen-5-yl)fluoromethyl) phosphonic acid] as the compound, how does the IC50 [1] read?
A: The IC50 was less than 0.1 µM.

Q: What about the IC50 [2] of the same compound?
A: The IC50 was 0.3 to 3 µM.

Q: What does the source list for `COc1c(C2CN(C(=O)[C@@H]3CC[C@@H]4CCC[C@H](NC(=O)c5cc6cc(C(F)P(=O)(O)O)ccc6s5)C(=O)N43)C2)ccnc1C#N` (stereo partly drawn) [Compound 932, ((2-(((3S,6S,9aS)-3-(3-(2-cyano-3-methoxypyridin-4-yl)azetidine-1-carbonyl)-5-oxooctahydro-1H-pyrrolo[1,2-a]azepin-6-yl)carbamoyl)benzo [b]thiophen-5-yl)fluoromethyl) phosphonic acid]?
A: IC50 [1]: < 0.1 µM; IC50 [2]: 3 to 30 µM

Q: `COC1CN(c2ccncc2C2CN(C(=O)[C@@H]3CC[C@@H]4C[C@H](C)C[C@H](NC(=O)c5cc6cc(CP(=O)(O)O)ccc6s5)C(=O)N43)C2)C1` [Compound 933, ((2-(((3S,6S,8R,9aR)-3-(3-(4-(3-methoxyazetidin-1-yl)pyridin-3-yl)azetidine-1-carbonyl)-8-methyl-5-oxooctahydro-1H-pyrrolo[1,2-a]azepin-6-yl)carbamoyl)benzo [b]thiophen-5-yl)methyl) phosphonic acid] was tested. Which IC50 [1] did it give?
A: Its IC50 is less than 0.1 µM.

Q: What about the IC50 [2] of the same compound?
A: The IC50 was 3 to 30 µM.

Source: patent US20250215029A1 (Recludix Pharma, Inc., priority 2022, published 2025)
